Molecules are shown by their SMILES.

This experiment concerns the target human APJ receptor (Homo sapiens (Human), UniProt P35414). Briefly: [35S]GTPγS binding assay on membranes from CHO cells stably expressing human APJ receptor. To be noted: read-out: Activity hAPJ SPA EC50 IP. It counts as biochemical. The gist of the method:
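Membranes from CHO cells stably expressing human APJ incubated with ligand, 0.2 nM [35S]GTPγS and WGA SPA beads in HEPES pH 7.5 with 5 mM MgCl2, 200 mM NaCl, 3 μM GDP, 90 min at RT. Nonspecific binding defined with 100 μM GTPγS; EC50 by non-linear regression.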
Background: Binding of GTPγS marks nucleotide exchange on a G protein.

Chain of human APJ receptor (P35414 whole entry): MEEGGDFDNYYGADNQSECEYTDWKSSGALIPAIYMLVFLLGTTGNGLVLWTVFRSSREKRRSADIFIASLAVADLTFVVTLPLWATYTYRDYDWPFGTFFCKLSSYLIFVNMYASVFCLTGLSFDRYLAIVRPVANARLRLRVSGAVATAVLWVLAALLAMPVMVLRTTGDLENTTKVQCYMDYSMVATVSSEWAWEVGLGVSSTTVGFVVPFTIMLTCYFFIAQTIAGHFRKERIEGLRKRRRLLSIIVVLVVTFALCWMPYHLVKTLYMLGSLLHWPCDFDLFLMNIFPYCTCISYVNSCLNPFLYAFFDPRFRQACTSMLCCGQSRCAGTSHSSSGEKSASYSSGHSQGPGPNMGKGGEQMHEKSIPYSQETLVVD

Turning to `COc1ncnc(OC)c1-n1c(NS(=O)(=O)[C@@H](C)[C@H](C)c2ncc(Cl)cn2)nnc1[C@H]1CCOC1` (single isomer, unassigned) [Example 94.0, (2S,3R)-3-(5-chloropyrimidin-2-yl)-N-(4-(4,6-dimethoxypyrimidin-5-yl)-5-((R)-tetrahydrofuran-3-yl)-4H-1,2,4-triazol-3-yl)butane-2-sulfonamide or (2S,3R)-3-(5-chloropyrimidin-2-yl)-N-(4-(4,6-dimethoxypyrimidin-5-yl)-5-((S)-tetrahydrofuran-3-yl)-4H-1,2,4-triazol-3-yl)butane-2-sulfonamide], the EC50 (usually the concentration giving half of the maximal effect) turned out to be 190 nM.
As for `COc1ncnc(OC)c1-n1c(NS(=O)(=O)[C@@H](C)[C@@H](OC(C)C)c2ncc(C)cn2)nnc1[C@H]1CCCO1` (single isomer, unassigned) [Example 95.0, (1S,2S)-N-(4-(4,6-dimethoxypyrimidm-5-yl)-5-((S)-tetrahydrofuran-2-yl)-4H-1,2,4-triazol-3-yl)-1-isopropoxy-1-(5-methylpyrimidin-2-yl)propane-2-sulfonamide or (1S,2S)-N-(4-(4,6-dimethoxypyrimidin-5-yl)-5-((R)-tetrahydrofuran-2-yl)-4H-1,2,4-triazol-3-yl)-1-isopropoxy-1-(5-methylpyrimidin-2-yl)propane-2-sulfonamide], the EC50 came out at 15 nM.
With `COc1ncnc(OC)c1-n1c(NS(=O)(=O)[C@@H](C)[C@@H](OC(C)C)c2ncc(C)cn2)nnc1[C@H]1CCCO1` (single isomer, unassigned) [Example 96.0, (1S,2S)-N-(4-(4,6-dimethoxypyrimidm-5-yl)-5-((S)-tetrahydrofuran-2-yl)-4H-1,2,4-triazol-3-yl)-1-isopropoxy-1-(5-methylpyrimidin-2-yl)propane-2-sulfonamide or (1S,2S)-N-(4-(4,6-dimethoxypyrimidin-5-yl)-5-((R)-tetrahydrofuran-2-yl)-4H-1,2,4-triazol-3-yl)-1-isopropoxy-1-(5-methylpyrimidin-2-yl)propane-2-sulfonamide], the EC50 worked out at 190 nM.
Then `COc1cccc(OC)c1-n1c(NS(=O)(=O)[C@@H](C)[C@@H](OC(C)C)c2ncc(C)cn2)nnc1[C@H]1CCCO1` (single isomer, unassigned) [Example 98.0, (1S,2S)-N-(4-(2,6-dimethoxyphenyl)-5-((S)-tetrahydrofuran-2-yl)-4H-1,2,4-triazol-3-yl)-1-isopropoxy-1-(5-methylpyrimidin-2-yl)propane-2-sulfonamide or (1S,2S)-N-(4-(2,6-dimethoxyphenyl)-5-((R)-tetrahydrofuran-2-yl)-4H-1,2,4-triazol-3-yl)-1-isopropoxy-1-(5-methylpyrimidin-2-yl)propane-2-sulfonamide], with 0.78 nM; and `COc1cccc(OC)c1-n1c(NS(=O)(=O)[C@@H](C)[C@@H](OC(C)C)c2ncc(C)cn2)nnc1[C@H]1CCOC1` (single isomer, unassigned) [Example 99.0, (1S,2S)-N-(4-(2,6-dimethoxyphenyl)-5-((R)-tetrahydrofuran-3-yl)-4H-1,2,4-triazol-3-yl)-1-isopropoxy-1-(5-methylpyrimidin-2-yl)propane-2-sulfonamide or (1S,2S)-N-(4-(2,6-dimethoxyphenyl)-5-((S)-tetrahydrofuran-3-yl)-4H-1,2,4-triazol-3-yl)-1-isopropoxy-1-(5-methylpyrimidin-2-yl)propane-2-sulfonamide], with 2.5 nM.
Take `COc1cccc(OC)c1-n1c(NS(=O)(=O)[C@@H](C)[C@@H](OC(C)C)c2ncc(C)cn2)nnc1[C@H]1CCOC1` (single isomer, unassigned) [Example 100.0, (1S,2S)-N-(4-(2,6-dimethoxyphenyl)-5-((R)-tetrahydrofuran-3-yl)-4H-1,2,4-triazol-3-yl)-1-isopropoxy-1-(5-methylpyrimidin-2-yl)propane-2-sulfonamide or (1S,2S)-N-(4-(2,6-dimethoxyphenyl)-5-((S)-tetrahydrofuran-3-yl)-4H-1,2,4-triazol-3-yl)-1-isopropoxy-1-(5-methylpyrimidin-2-yl)propane-2-sulfonamide]: the EC50 came out at 24 nM.
The figure for `COc1ncnc(OC)c1-n1c(NS(=O)(=O)[C@@H](C)[C@H](C)c2ncc(Cl)cn2)nnc1[C@H]1CCCOC1` (single isomer, unassigned) [Example 101.0, (2S,3R)-3-(5-chloropyrimidin-2-yl)-N-(4-(4,6-dimethoxypyrimidin-5-yl)-5-((S)-tetrahydro-2H-pyran-3-yl)-4H-1,2,4-triazol-3-yl)butane-2-sulfonamide or (2S,3R)-3-(5-chloropyrimidin-2-yl)-N-(4-(4,6-dimethoxypyrimidin-5-yl)-5-((R)-tetrahydro-2H-pyran-3-yl)-4H-1,2,4-triazol-3-yl)butane-2-sulfonamide] is 260 nM.
On to `COc1ncnc(OC)c1-n1c(NS(=O)(=O)[C@@H](C)[C@H](C)c2cnc(C)cn2)nnc1[C@H]1CCCO1` (single isomer, unassigned) [Example 104.0, (2S,3R)-N-(4-(4,6-dimethoxypyrimidin-5-yl)-5-((S)-tetrahydrofuran-2-yl)-4H-1,2,4-triazol-3-yl)-3-(5-methylpyrazin-2-yl)butane-2-sulfonamide or (2S,3R)-N-(4-(4,6-dimethoxypyrimidin-5-yl)-5-((R)-tetrahydrofuran-2-yl)-4H-1,2,4-triazol-3-yl)-3-(5-methylpyrazin-2-yl)butane-2-sulfonamide], for which the EC50 turned out to be 330 nM.
As to `COc1ncnc(OC)c1-n1c(NS(=O)(=O)[C@@H](C)[C@H](C)c2cnc(C)cn2)nnc1[C@H]1CCCO1` (single isomer, unassigned) [Example 105.0, (2S,3R)-N-(4-(4,6-dimethoxypyrimidin-5-yl)-5-((S)-tetrahydrofuran-2-yl)-4H-1,2,4-triazol-3-yl)-3-(5-methylpyrazin-2-yl)butane-2-sulfonamide or (2S,3R)-N-(4-(4,6-dimethoxypyrimidin-5-yl)-5-((R)-tetrahydrofuran-2-yl)-4H-1,2,4-triazol-3-yl)-3-(5-methylpyrazin-2-yl)butane-2-sulfonamide], the EC50 was 88 nM.
Then `COc1cccc(OC)c1-n1c(NS(=O)(=O)[C@@H](C)[C@H](C)c2cnc(C)cn2)nnc1[C@H]1CCCCO1` (single isomer, unassigned) [Example 106.0, (2S,3R)-N-(4-(2,6-dimethoxyphenyl)-5-((S)-tetrahydro-2H-pyran-2-yl)-4H-1,2,4-triazol-3-yl)-3-(5-methylpyrazin-2-yl)butane-2-sulfonamide or (2S,3R)-N-(4-(2,6-dimethoxyphenyl)-5-((R)-tetrahydro-2H-pyran-2-yl)-4H-1,2,4-triazol-3-yl)-3-(5-methylpyrazin-2-yl)butane-2-sulfonamide], with 53 nM; and `COc1cccc(OC)c1-n1c(NS(=O)(=O)[C@@H](C)[C@H](C)c2cnc(C)cn2)nnc1[C@H]1CCCCO1` (single isomer, unassigned) [Example 107.0, (2S,3R)-N-(4-(2,6-dimethoxyphenyl)-5-((S)-tetrahydro-2H-pyran-2-yl)-4H-1,2,4-triazol-3-yl)-3-(5-methylpyrazin-2-yl)butane-2-sulfonamide or (2S,3R)-N-(4-(2,6-dimethoxyphenyl)-5-((R)-tetrahydro-2H-pyran-2-yl)-4H-1,2,4-triazol-3-yl)-3-(5-methylpyrazin-2-yl)butane-2-sulfonamide], with 5.1 nM.
